Measurements from patent US6555499B1, “Herbicide agent” (Syngenta Crop Protection, Inc., priority 1999, dated 2003).

Legend:
[1] = test system: Avena; assay: Post-emergence test, Example B1: Avena; format: in vivo; details: greenhouse, herbicide 25 g/ha, where combined cloquintocet-mexyl 6.25 g/ha, MERGE 1% by weight of spray mixture, evaluated after 2 to 4 weeks, 100%=complete destruction
Excerpt: (§1) A standard soil is used as cultivation substrate.
(§2) The rate of application of herbicide is in each case 25 g/ha; the rate of application of cloquintocet-mexyl is 6.25 g/ha. As oil additive, MERGE® is used in a concentration of 1% by weight of the spray mixture.

[2] = test system: Apera; assay: Post-emergence test, Example B1: Apera; format: in vivo; details: greenhouse, herbicide 25 g/ha, where combined cloquintocet-mexyl 6.25 g/ha, MERGE 1% by weight of spray mixture, evaluated after 2 to 4 weeks, 100%=complete destruction
Excerpt: as §1, §2

[3] = test system: Alopecurus; assay: Post-emergence test, Example B1: Alopecurus; format: in vivo; details: greenhouse, herbicide 25 g/ha, where combined cloquintocet-mexyl 6.25 g/ha, MERGE 1% by weight of spray mixture, evaluated after 2 to 4 weeks, 100%=complete destruction
Excerpt: as §1, §2

[4] = test system: weeds; assay: Post-emergence test, Example B1: weeds overall, in words; format: in vivo, Apera, Alopecurus, Avena; details: herbicide 25 g/ha, where combined cloquintocet-mexyl 6.25 g/ha, MERGE 1%
Excerpt: as §1, §2

Row | Structure (SMILES) | Herbicidal action on Avena [1] [%] | Herbicidal action on Apera [2] [%] | Herbicidal action on Alopecurus [3] [%] | Herbicidal action on the weeds (in words) [4]
1 | CCc1cc(C)cc(CC)c1-c1c(OC(=O)C(C)(C)C)n2n(c1=O)CCOCC2 [compound no. 1.008] | 20 | 25 | 20 | only slight to moderate herbicidal action
2 | CCc1cc(C)cc(CC)c1C1C(=O)N2CCOCCN2C1=O [compound no. 1.007] | 10 | 60 | 10 | only slight to moderate herbicidal action
